# According to patent US5849743A, “Quinoxalines and drugs prepared therefrom” (BASF Aktiengesellschaft, priority 1997, dated 1998):
# Molecular target: AMPA receptors
# Experiment: Binding of 3H-AMPA to rat cerebral membrane material
# Settings: displacement of 3H-AMPA, membrane material from rat cerebra, incubated on ice for 60 minutes
# Experimental: The pharmacological activity of the compounds I according to the invention was investigated on isolated membrane material from rat brains. For this purpose, the membrane material was incubated in the presence of the substances according to the invention with the radiolabeled substances ^3 H-2-amino-3-hydroxy-5-methyl-4-isoxazolepropionic acid (^3 H-AMPA), ^3 H-5,7-dichlorokynurenic acid or ^3 H-kainate. During this the said radioligands bind in each case to the glutamate receptors specific for them, ie. to AMPA receptors, (^3 H-5,7-dichlorokynurenic acid-binding) NMDA receptors and kainate receptors respectively. After the incubation, the membranes with the receptor-bound radioligands were separated from the free radioligands, and the radioactivity associated with the membranes as measured by liquid scintillation counting. The concentration of receptor-bound ligands, and the extent of displacement of a given radioligand by particular concentrations of the compounds I according to the invention, can be determined from the radioactivity of the membranes. […]
row,SMILES,Ki
1,"O=C(NCc1ccn(-c2cc3[nH]c(=O)c(=O)[nH]c3cc2[N+](=O)[O-])c1)c1ccncc1 [Example 3, acetate]",< 10 µM
2,"O=C(O)Cn1c(=O)c(=O)[nH]c2cc([N+](=O)[O-])c(-n3ccc(CN4CCCCC4)c3)cc21 [Example 14, 1-Carboxymethyl-6-nitro-7-(3-((1-piperidinyl)methyl)-1-pyrrolyl)quinoxaline-2,3(1H,4H)-dione]",< 10 µM
